In US10913738B2 (BRISTOL-MYERS SQUIBB COMPANY, priority 2017, dated 2021):
Where two headings read alike, the source gives them in different places.

What was measured:
[1] = target: T1, His-GST-TVMV-hRIPK1(1-324) (Homo sapiens, UniProt Q13546); assay: RIPK1 HTRF Binding Assay
T1 construct: The coding region of human RIPK1(1-324) flanked by NdeI site at 5′ end; made in house; host or cells: Spodoptera frugiperda (Sf9) insect cells, baculovirus
T1 sequence (Q13546 1-324): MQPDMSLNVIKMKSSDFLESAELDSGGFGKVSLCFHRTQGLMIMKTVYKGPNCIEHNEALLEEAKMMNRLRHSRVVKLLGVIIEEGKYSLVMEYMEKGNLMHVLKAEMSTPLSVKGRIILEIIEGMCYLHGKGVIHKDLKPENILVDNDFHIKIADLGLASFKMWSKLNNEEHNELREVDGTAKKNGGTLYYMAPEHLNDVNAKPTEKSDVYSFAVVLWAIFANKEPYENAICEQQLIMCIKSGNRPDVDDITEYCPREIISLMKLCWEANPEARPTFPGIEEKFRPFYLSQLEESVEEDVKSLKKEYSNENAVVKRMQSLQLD

[2] = system: MLKL phosphorylation in HT29-L23 human colorectal adenocarcinoma cells; assay: MLKL Phosphorylation High-Content Assay; type: cell-based; settings: Homo sapiens
Summary of the method: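 IC50 and Ymax obtained by 4-parameter logistic fitting of MLKL phosphorylation, measured as mean circ-ring average intensity ratio from high-content images. Staining used an anti-phospho-S358 MLKL antibody overnight at 4° C., following six-hour cell incubation at 37° C.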

[3] = x marks IC50 class 20-200 nM, read-out: RIPK1 HTRF binding 20-200 nM
[4] = x marks IC50 class >200 nM, read-out: pMLKL cell activity >200 nM
[5] = x marks IC50 class <20 nM, read-out: RIPK1 HTRF binding <20 nM
[6] = x marks IC50 class 20-200 nM, read-out: pMLKL cell activity 20-200 nM
[7] = x marks IC50 class <20 nM, read-out: pMLKL cell activity <20 nM

| Structure (SMILES) | IC50 [1, 3] [nM] | IC50 [2, 4] [nM] | IC50 [1, 5] [nM] | IC50 [2, 6] [nM] | IC50 [2, 7] [nM] |
| --- | --- | --- | --- | --- | --- |
| Cc1ncc(-c2ccn3nc(N)nc3c2)cc1C(=O)NCCc1cccc(OC(F)(F)F)c1 [Example 227, 5-{2-amino-[1,2,4]triazolo[1,5-a]pyridin-7-yl}-2-methyl-N-{2-[3-(trifluoromethoxy)phenyl]ethyl}pyridine-3-carboxamide] | 20 to 200 | > 200 |  |  |  |
| Cc1ncc(-c2ccn3nc(N)nc3c2)cc1C(=O)NCc1c(F)cc(F)cc1OCC1CCCC1 [Example 228] |  |  | < 20 | 20 to 200 |  |
| Cc1ncc(-c2ccn3nc(N)nc3c2)cc1C(=O)NCc1cc(OC(F)(F)F)ccc1F [Example 229, 5-{2-amino-[1,2,4]triazolo[1,5-a]pyridin-7-yl}-N-{[2-fluoro-5-(trifluoromethoxy)phenyl]methyl}-2-methylpyridine-3-carboxamide] |  |  | < 20 | 20 to 200 |  |
| Cc1ncc(-c2ccn3nc(N)nc3c2)cc1C(=O)NCc1ccccc1OCC1CCCCC1 [Example 230, 5-{2-amino-[1,2,4]triazolo[1,5-a]pyridin-7-yl}-N-{[2-(cyclohexylmethoxy)phenyl]methyl}-2-methylpyridine-3-carboxamide] |  |  | < 20 | 20 to 200 |  |
| Cc1ncc(-c2ccn3nc(N)nc3c2)cc1C(=O)NCc1cccnc1OCC1CCCC1 [Example 231, 5-{2-amino-[1,2,4]triazolo[1,5-a]pyridin-7-yl}-N-{[2-(cyclopentylmethoxy)pyridin-3-yl]methyl}-2-methylpyridine-3-carboxamide] | 20 to 200 | > 200 |  |  |  |
| Cc1ncc(-c2ccn3nc(N)nc3c2)cc1C(=O)NCc1cc(F)cc(F)c1OCC1CCCC1 [Example 232] |  |  | < 20 | 20 to 200 |  |
| Cc1ncc(-c2ccn3nc(N)nc3c2)cc1C(=O)NCc1cccnc1OCC1CCC1 [Example 233, 5-{2-amino-[1,2,4]triazolo[1,5-a]pyridin-7-yl}-N-{[2-(cyclobutylmethoxy)pyridin-3-yl]methyl}-2-methylpyridine-3-carboxamide] |  | > 200 | < 20 |  |  |
| Cc1ncc(-c2ccn3nc(N)nc3c2)cc1C(=O)NC(C)c1cccc(OC(F)(F)F)c1 (stereo not shown) [Example 234, 5-{2-amino-[1,2,4]triazolo[1,5-a]pyridin-7-yl}-2-methyl-N-{1-[3-(trifluoromethoxy)phenyl]ethyl}pyridine-3-carboxamide] | 20 to 200 | > 200 |  |  |  |
| Cc1ncc(-c2ccn3nc(N)nc3c2)cc1C(=O)NCc1cc(F)cc(F)c1OCC1CC1 [Example 235, 5-{2-amino-[1,2,4]triazolo[1,5-a]pyridin-7-yl}-N-{[2-(cyclopropylmethoxy)-3,5-difluorophenyl]methyl}-2-methylpyridine-3-carboxamide] |  |  | < 20 | 20 to 200 |  |
| Cc1ncc(-c2ccn3nc(N)nc3c2)cc1C(=O)NCc1ncccc1OCC1CCC1 [Example 236, 5-{2-amino-[1,2,4]triazolo[1,5-a]pyridin-7-yl}-N-{[3-(cyclobutylmethoxy)pyridin-2-yl]methyl}-2-methypyridine-3-carboxamide] | 20 to 200 |  |  | 20 to 200 |  |
| Cc1ncc(-c2ccn3nc(N)nc3c2)cc1C(=O)NCc1ccccc1OC1CCC(C)C1 (stereo not shown) [Example 237, 5-{2-amino-[1,2,4]triazolo[1,5-a]pyridin-7-yl}-2-methyl-N-({2-[(3-methylcyclopentyl)oxy]phenyl}methyl)pyridine-3-carboxamide] |  |  | < 20 |  | < 20 |
| Cc1ncc(-c2ccn3nc(N)nc3c2)cc1C(=O)NCc1ncccc1OCC1CC1 [Example 238, 5-{2-amino-[1,2,4]triazolo[1,5-a]pyridin-7-yl}-N-{[3-(cyclopropylmethoxy)pyridin-2-yl]methyl}-2-methylpyridine-3-carboxamide] | 20 to 200 |  |  | 20 to 200 |  |
| Cc1ncc(-c2ccn3nc(N)nc3c2)cc1C(=O)NCc1ccccc1OC1CCCCC1 [Example 239, 5-{2-amino-[1,2,4]triazolo[1,5-a]pyridin-7-yl}-N-{[2-(cyclohexyloxy)phenyl]methyl}-2-methylpyridine-3-carboxamide] |  |  | < 20 |  | < 20 |
| Cc1ncc(-c2ccn3nc(N)nc3c2)cc1C(=O)NCc1cccnc1OC1CCCC1 [Example 240, 5-{2-amino-[1,2,4]triazolo[1,5-a]pyridin-7-yl}-N-{[2-(cyclopentyloxy)pyridin-3-yl]methyl}-2-methylpyridine-3-carboxamide] |  |  | < 20 | 20 to 200 |  |
| Cc1ncc(-c2ccn3nc(N)nc3c2)cc1C(=O)NCc1ncccc1OC1CCCC1 [Example 241, 5-{2-amino-[1,2,4]triazolo[1,5-a]pyridin-7-yl}-N-{[3-(cyclopentyloxy)pyridin-2-yl]methyl}-2-methylpyridine-3-carboxamide] |  |  | < 20 | 20 to 200 |  |
| Cc1ncc(-c2ccn3nc(N)nc3c2)cc1C(=O)NCc1cc(F)ccc1OC1CCCC1 [Example 242, 5-{2-amino-[1,2,4]triazolo[1,5-a]pyridin-7-yl}-N-{[2-(cyclopentyloxy)-5-fluorophenyl]methyl}-2-methylpyridine-3-carboxamide] |  |  | < 20 |  | < 20 |
| Cc1ncc(-c2ccn3nc(N)nc3c2)cc1C(=O)NCc1cccc(OCC2CC2)c1 [Example 243, 5-{2-amino-[1,2,4]triazolo[1,5-a]pyridin-7-yl}-N-{[3-(cyclopropylmethoxy)phenyl]methyl}-2-methylpyridine-3-carboxamide] | 20 to 200 | > 200 |  |  |  |
| Cc1ncc(-c2ccn3nc(N)nc3c2)cc1C(=O)NCc1ccccc1OC(F)(F)C(F)F [Example 244, 5-{2-amino-[1,2,4]triazolo[1,5-a]pyridin-7-yl}-2-methyl-N-{[2-(1,1,2,2-tetrafluoroethoxy)phenyl]methyl}pyridine-3-carboxamide] | 20 to 200 | > 200 |  |  |  |
| Cc1ncc(-c2ccn3nc(N)nc3c2)cc1C(=O)NCc1c(F)cccc1OCC1CC1 [Example 245, 5-{2-amino-[1,2,4]triazolo[1,5-a]pyridin-7-yl}-N-{[2-(cyclopropylmethoxy)-6-fluorophenyl]methyl}-2-methylpyridine-3-carboxamide] |  |  | < 20 | 20 to 200 |  |
| Cc1ncc(-c2ccn3nc(N)nc3c2)cc1C(=O)NCc1cccc(OC(F)(F)F)c1 [Example 246, 5-{2-amino-[1,2,4]triazolo[1,5-a]pyridin-7-yl}-2-methyl-N-{[3-(trifluoromethoxy)phenyl]methyl}pyridine-3-carboxamide] | 20 to 200 | > 200 |  |  |  |
| Cc1ncc(-c2ccn3nc(N)nc3c2)cc1C(=O)NCc1c(F)cccc1OC1CCCC1 [Example 247, 5-{2-amino-[1,2,4]triazolo[1,5-a]pyridin-7-yl}-N-{[2-(cyclopentyloxy)-6-fluorophenyl]methyl}-2-methylpyridine-3-carboxamide] |  |  | < 20 |  | < 20 |
| Cc1ncc(-c2ccn3nc(N)nc3c2)cc1C(=O)NCc1ccccc1OCC1CCC1 [Example 248, 5-{2-amino-[1,2,4]triazolo[1,5-a]pyridin-7-yl}-N-{[2-(cyclobutylmethoxy)phenyl]methyl}-2-methylpyridine-3-carboxamide] |  |  | < 20 |  | < 20 |
| Cc1ncc(-c2ccn3nc(N)nc3c2)cc1C(=O)NCc1ccccc1OC1CCCC1 [Example 249, 5-{2-amino-[1,2,4]triazolo[1,5-a]pyridin-7-yl}-N-{[2-(cyclopentyloxy)phenyl]methyl}-2-methylpyridine-3-carboxamide] |  |  | < 20 |  | < 20 |
